Among the data in US10851073B2, “Protein tyrosine phosphatase inhibitors and methods of use thereof” (Calico Life Sciences LLC, priority 2019, dated 2020) are IC50 and EC50 values, retold here.

For assay [1], the target named is T1, His tagged full-length PTPN1 protein (Homo sapiens, UniProt P18031).
T1 construct: made in house
T1 sequence (P18031 with tags, fused parts or gaps): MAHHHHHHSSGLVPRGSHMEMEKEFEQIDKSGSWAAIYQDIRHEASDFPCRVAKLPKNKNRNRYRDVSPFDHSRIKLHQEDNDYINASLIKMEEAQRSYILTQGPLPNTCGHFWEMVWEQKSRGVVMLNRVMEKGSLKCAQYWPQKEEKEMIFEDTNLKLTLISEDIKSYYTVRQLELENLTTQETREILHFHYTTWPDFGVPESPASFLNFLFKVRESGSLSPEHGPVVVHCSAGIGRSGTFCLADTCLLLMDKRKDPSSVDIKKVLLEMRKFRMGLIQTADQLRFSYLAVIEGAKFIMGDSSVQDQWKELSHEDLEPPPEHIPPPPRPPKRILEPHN
Briefly: Mobility shift assay (MSA) used to determine potency of PTPN1 inhibitors. Type of assay: biochemical. Conditions: enzyme 0.5 nM, substrate 2 μM. In outline: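 Full-length His-tagged human PTPN1 (0.5 nM) was preincubated 10 min at room temperature with compound (12-point, 1:3 dilution) in HEPES pH 7.5 buffer with EGTA, EDTA, Tween 20 and DTT. A 2 μM fluorescent phospho-insulin receptor peptide was then added for 10 min before quench. Mobility-shift % conversion gave % inhibition and IC50.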

Assay [2] has as its system IFNγ-induced STAT1 phosphorylation in CD14+ monocytes. Briefly: Human whole blood pSTAT1 proximal pharmacodynamic (PD) assay. The assay is classed as cell-based. To be noted: Monocyte, 3 hours compound, IFNγ 20 minutes. The method, then: Example 230: Human Whole Blood pSTAT1 Proximal Pharmacodynamic (PD) Assay Human blood samples were acquired through internal AbbVie Inc's blood donation program in accordance with AbbVie's Occupational Safety and Health Administration protocols. Blood was collected by venipuncture into sodium heparin coated vacutainer tubes and kept at room temperature for no longer than 1 hour prior to the experiment initiation. Human blood samples (90 μL) were added to the individual wells of 96-well plates containing 10 μL of 10× working stock solutions of increasing concentrations of compounds to achieve final concentrations ranging from 0.025 μM to 500 μM and incubated for 3 hours at 37° C. To induce STAT1 phosphorylation the samples were then treated with recombinant human IFNγ (R&D Systems, Catalog^#285-IF, Minneapolis, Minn.; 100 nM final concentration) for 20 minutes, and 3 μL/well BV421 labeled anti-CD14 surface antibody (Biolegend, San Diego, Calif., Catalog^#301830) was added for 45 minutes before fixation and red blood cell lysis was performed with BD Phosflow Lyse/Fix buffer (BD Biosciences, San Jose, Calif., Catalog^#558049). Cells were subsequently permeabilized on ice by the addition of BD Perm III buffer (BD Biosciences, San Jose, Calif., Catalog^#558050) and stored at -80° C. until use. Before staining, the cells were washed with PBS containing 0.1% BSA. Optim/zed concentrations of BUV395 labeled anti-CD45 (BD Biosciences, San Jose, Calif., Catalog^#563792) and PE labeled anti-phospho-STAT1 ([…]; Invitrogen, Carlsbad, Calif., Catalog^#12-9008-42) antibodies were added to the cell suspensions and incubated for 2 hours. The cells were washed with PBS containing 0.1% BSA and analyzed on a BD LSRFortessaTM X20 flow cytometer (BD Biosciences, San Jose, Calif.) using BD FACSDivaTM software. The data was analyzed using FlowJo V10 analysis software (Flow Jo LLC, Ashland, Oreg.). The amount of STAT phosphorylation was measured by the mean fluorescence intensity (MFI) of pSTAT1 in CD14+monocytes. Compound dose-response curves were determined using a four-parameter logistic-nonlinear regression model from which half maximal effective concentrations (EC50) were calculated. All statistical analyses utilized GraphPad software (San Diego, Calif.).

Assay [3] has as its system B16F10 mouse melanoma cells. As to the kind of experiment: B16F10 IFNγ-induced cellular growth inhibition assay. The assay is classed as cell-based. Conditions: B16-F10, with 0.5 ng/mL IFNγ. In short, it runs like this:
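B16F10 cells grown in DMEM+10% FBS, with or without 0.5 ng/mL final mouse IFNγ, and dosed in triplicate at 100 μM to 0.001 μM final (0.1% DMSO). Confluence imaged every 6 h for 5 days; percent growth inhibition versus DMSO/with-IFNγ control taken once DMSO/no-IFNγ wells exceeded 95% confluence, giving IC50.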

The mark [4] stands for this setting: read-out: B16F10 Growth Inhibition IC50.

pEC50, pIC50: −log10 of the molar value. Read-outs that look alike come from different tables or passages of the source.

For the compound `CC(C)CCN[C@@H]1CCc2cc(O)c(N3CC(=O)NS3(=O)=O)c(F)c2C1` (single isomer, unassigned) [Compound 118], the pIC50 – broadly, the IC50 on a negative log10 scale, so that one unit is a factor of ten – in assay [1] is 8.00 to 9.00; in assay [3] (read-out: B16F10 GI IC50), > 6.00; in assay [3] (setting [4]) it was 6.96. For the same compound, the pEC50 (as a rule, −log10 of the EC50, conventionally taken in molar units) in assay [2] was 6.24.
On the same counts, the results for `O=C1CN(c2c(O)cc3c(c2F)C[C@H](NCCC(F)F)CC3)S(=O)(=O)N1` (single isomer, unassigned) [Compound 260] are 8.00 to 9.00, > 6.00, 6.74 and 5.36.
The like results for `O=C1CN(c2c(O)cc3c(c2F)C[C@H](NCCCC(F)F)CC3)S(=O)(=O)N1` (single isomer, unassigned) [Compound 199] were, in that order, > 9.00, > 6.00, > 7.30 and 6.08.
On the same counts, the results for `CC(C)(CCN[C@@H]1CCc2cc(O)c(N3CC(=O)NS3(=O)=O)c(F)c2C1)C(F)(F)F` (single isomer, unassigned) [Compound 177] are 8.00 to 9.00, > 6.00, 6.85 and 5.70.
With `O=C1CN(c2c(O)cc3c(c2F)C[C@H](NCCC2CC2)CC3)S(=O)(=O)N1` (single isomer, unassigned) [Compound 133], the pIC50 in assay [1] was 8.00 to 9.00; in assay [3] (read-out: B16F10 GI IC50), > 6.00; in assay [3] (setting [4]), 6.66. The compound also had a pEC50 in assay [2] of 5.80.
In the case of `O=C1CN(c2c(O)cc3c(c2F)C[C@@H](NCCC(F)F)CC3)S(=O)(=O)N1` (single isomer, unassigned) [Compound 259], the pIC50 was 7.00 to 8.00 in assay [1], 5.00 to 6.00 in assay [3] (read-out: B16F10 GI IC50) and 5.82 in assay [3] (setting [4]). Also, the pEC50 in assay [2] was 4.85.
